The text below walks through data of patent EP1206248B1, “CONTROLLED-RELEASE SEDATIVE-HYPNOTIC COMPOSITIONS AND METHODS RELATED THERETO” (Neurocrine Biosciences, Inc., priority 1999, dated 2001).

As a reminder, the half-life is the time in which the quantity being followed falls by half. The Vd is a proportionality between amount in the body and measured concentration, not a real space. As usually defined, the solubility is how much of the substance goes into solution per volume. Low readings indicate little dissolved substance, high ones much dissolved substance. The term logD denotes the decadic logarithm of the distribution of all forms, ionised or not, between an organic phase and buffer at a given pH. A higher logD goes with higher lipophilicity.

Values after ≈ are worked out from the molar mass of the structure shown.

Data set [1] is described as follows: Plasma half-life and pharmacokinetic parameters from plasma concentration-time profiles. The class given is in vivo. The settings on record: human. From the text: The mean plasma half-life of a sedative-hypnotic compound may be determined using well known techniques. Terminal half-life may be determined using standard pharmacokinetic calculations, such as those presented by Rolland and Tozer (Clinical Pharmacokinetics Concepts and Applications, 3rd. Ed., Chap. 3, 1995). In addition, software is commercially available which performs this calculation, such as the product sold under the tradename "WinNinlin™" (Prof. Ver.1.5). […]
To assess the plasma concentration time profiles, plasma concentration, Tmax and Tmin may be determined using well known techniques. […] Any suitable assay may be used to determine plasma levels, such as ELISA, RIA, or chromatography (e.g., gas-liquid chromatography or high pressure liquid chromatography) linked to any suitable detection system such as UV, fluorescence, mass spectrometry or an electrochemical system). […]
In this experiment, commercially available plasma profiling sofltware (GastroPlus™) (Simulations Plus Inc., CA) was used to simulate the effects of varying controlled release profiles and pharmacokinetic parameters based on in vivo plasma concentrations of NBI-34060 as measured in 12-healty male human subjects. […]

The nature of data set [2]: log D partition coefficient.

With `CC(=O)N(C)c1cccc(-c2ccnc3c(C(=O)c4cccs4)cnn23)c1` [NBI-34060, N-methyl-N-(3-{3-[2-thienylcarbonyl]-pyrazolo-[1,5-a]-pyrimidin-7-yl}-phenyl)acetamide], in data set [1] (plasma half-life of NBI-34060), the half-life is 1.3 h. Moreover, in data set [1] (male, one-compartment pharmacokinetic model, assuming 70 kg subject weight, read-out: volume of distribution (Vd)), the Vd is 2.27 L/kg. In addition, in the data set “Solubility in water” (pH of the aqueous solution at approximately 20-30 µg/ml), the “resulting pH” value is reported as “approximately 8.0”. This compound returned a solubility in “Solubility in water” (water, pH 8, water) of 20 to 30 µg/mL (≈ 53.1 to 79.7 µM). In data set [2], the logD was found to be 1.73.
